Reference: patent publication US8822449B2, “Substituted aminoindanes and analogs thereof, and the pharmaceutical use thereof” (Sanofi, priority 2008, dated 2014)

These compounds were tested against T1, sodium-proton exchanger of subtype 3 (NHE3) (Homo sapiens, UniProt P48764) (assay: Recovery of intracellular pH (pHi) after acidification in LAP1 cells stably expressing NHE3 (BCECF fluorescence, FLIPR)). Conditions: LAP1 cells stably expressing NHE3; pH recovery after acidification; range 1 is % inhibition at 10 μM; read-out: Activity range (inhibitory effect on NHE3).
T1 construct: expressed in transfected cells
T1 sequence (P48764 26-834): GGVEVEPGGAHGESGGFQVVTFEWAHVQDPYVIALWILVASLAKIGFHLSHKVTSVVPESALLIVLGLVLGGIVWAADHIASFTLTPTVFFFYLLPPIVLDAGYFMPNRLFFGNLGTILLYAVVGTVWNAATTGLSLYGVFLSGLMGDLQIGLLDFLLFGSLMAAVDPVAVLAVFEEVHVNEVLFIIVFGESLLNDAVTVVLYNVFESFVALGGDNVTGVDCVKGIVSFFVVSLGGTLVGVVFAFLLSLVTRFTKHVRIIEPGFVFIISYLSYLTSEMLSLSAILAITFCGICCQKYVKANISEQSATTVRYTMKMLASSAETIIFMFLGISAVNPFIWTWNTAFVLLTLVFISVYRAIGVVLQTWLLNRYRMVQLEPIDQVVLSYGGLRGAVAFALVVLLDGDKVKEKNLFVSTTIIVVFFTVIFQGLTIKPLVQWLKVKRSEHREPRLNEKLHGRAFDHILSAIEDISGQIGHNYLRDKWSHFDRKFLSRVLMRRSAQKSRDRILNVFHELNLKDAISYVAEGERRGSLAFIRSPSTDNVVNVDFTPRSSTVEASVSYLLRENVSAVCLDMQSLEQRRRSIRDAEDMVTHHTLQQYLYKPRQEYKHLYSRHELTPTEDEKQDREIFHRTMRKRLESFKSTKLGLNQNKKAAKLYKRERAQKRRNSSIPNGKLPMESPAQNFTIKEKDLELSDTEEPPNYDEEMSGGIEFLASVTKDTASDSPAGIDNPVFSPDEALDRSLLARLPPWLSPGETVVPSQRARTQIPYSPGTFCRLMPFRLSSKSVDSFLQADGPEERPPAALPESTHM
Type: cell-based

Row | SMILES | IC50 | inhibition at 10 µM
1 | CN1CCN([C@H]2Cc3c(Cl)cc(Cl)cc3[C@@H]2Oc2ccc(-n3ccnc3)cc2)CC1 [Example 297, 1-[trans-(1S,2S)-4,6-dichloro-1-(4-imidazol-1-ylphenoxy)indan-2-yl]-4-methylpiperazine] |  | 20 to 50%
2 | CN(C)Cc1cccc(O[C@@H]2c3ccccc3C[C@H]2N2CCC[C@H](N)C2)c1 (racemic) [Example 167, (S)-1-[rac-trans-(1,2)-1-(3-dimethylaminomethylphenoxy)indan-2-yl]piperidin-3-ylamine] | 1000 to 10000 nM | 
3 | N[C@@H]1CCCN([C@@H]2Cc3c(Cl)cc(Cl)cc3[C@H]2Oc2ccccc2)C1 [Example 23, (R)-1-(trans-(1R,2R)-4,6-dichloro-1-phenoxyindan-2-yl)piperidin-3-ylamine] | 1000 to 10000 nM | 
4 | O=C1CCC(=O)N1c1cccc(O[C@H]2c3ccccc3C[C@@H]2N2CCCC2)c1 (racemic) [Example 256, 1-[3-(rac-trans-(1,2)-2-pyrrolidin-1-ylindan-1-yloxy)phenyl]pyrrolidine-2,5-dione] | 1000 to 10000 nM | 
5 | CCCC1(N)CCCN([C@H]2Cc3c(Cl)cc(Cl)cc3[C@@H]2Oc2ccc(S(C)(=O)=O)cc2)C1 (stereo partly drawn) [Example 300, 1-[trans-(1S,2S)-4,6-dichloro-1-(4-methanesulfonylphenoxy)indan-2-yl]-3-propylpiperidin-3-ylamine] | 1000 to 10000 nM | 
6 | N[C@H]1CCCN([C@@H]2Cc3ccccc3[C@H]2Oc2ccc(-n3cncn3)cc2)C1 (racemic) [Example 172, (S)-1-[rac-trans-(1,2)-1-(4-[1,2,4]triazol-1-ylphenoxy)indan-2-yl]piperidin-3-ylamine] | 1000 to 10000 nM | 
7 | COc1cc(C#N)cc(Cl)c1O[C@H]1c2ccccc2CC[C@@H]1N1CCC[C@@H](N)C1 (racemic) [Example 512, 4-[rac-trans-(1,2)-2-((R)-3-aminopiperidin-1-yl)-1,2,3,4-tetrahydronaphthalen-1-yloxy]-3-chloro-5-methoxy-benzonitrile] |  | 20 to 50%
8 | CS(=O)(=O)c1ccc(O[C@@H]2c3ccccc3C[C@@H]2NC2CCC2)cc1 (racemic) [Example 706, Cyclobutyl-[rac-cis-(1,2)-1-(4-methanesulfonyl-phenoxy)-indan-2-yl]-amine] |  | 20 to 50%
9 | N[C@@H]1CCCN([C@H]2CCc3ccccc3[C@@H]2Oc2ccc(NC(=O)OCc3ccccc3)cc2)C1 (racemic) [Example 237, {4-[rac-trans-(1,2)-2-((R)-3-aminopiperidin-1-yl)-1,2,3,4-tetrahydronaphthalen-1-yloxy]phenyl}carbamic acid benzyl ester] |  | 20 to 50%
10 | N[C@H]1CCCN([C@H]2CCc3ccccc3[C@@H]2Oc2ccc(F)cc2F)C1 (racemic) [Example 149, (S)-1-[rac-trans-(1,2)-1-(2,4-difluorophenoxy)-1,2,3,4-tetrahydronaphthalen-2-yl]piperidin-3-ylamine] |  | 20 to 50%
11 | CCNS(=O)(=O)c1ccc(O[C@@H]2c3ccccc3C[C@H]2N2CCCC2)cc1 (racemic) [Example 700, N-ethyl-4-(rac-trans-(1,2)-2-pyrrolidin-1-ylindan-1-yloxy)benzenesulfonamide] | < 1000 nM | 

Continued, values first:

Row | IC50 | inhibition at 10 µM | SMILES
12 | < 1000 nM |  | Cc1nnc(C)n1-c1ccc(O[C@H]2c3cc(Cl)cc(F)c3C[C@@H]2N2CC[C@@H](O)C2)c(Cl)c1 [Example 138, (R)-1-{trans-(1S,2S)-6-chloro-1-[2-chloro-4-(3,5-dimethyl-[1,2,4]triazol-4-yl)phenoxy]-4-fluoroindan-2-yl}pyrrolidin-3-ol]
13 | 1000 to 10000 nM |  | CS(=O)(=O)c1ccc(O[C@H]2c3cc(Cl)cc(Cl)c3C[C@@H]2N2CCC[C@H]2CO)cc1 [Example 228, {(S)-1-[trans-(1S,2S)-4,6-dichloro-1-(4-methanesulfonylphenoxy)indan-2-yl]pyrrolidin-2-yl}methanol]
14 | < 1000 nM |  | Cc1nc2cc(O[C@@H]3c4ccccc4C[C@H]3N3CCC[C@@H](N)C3)ccc2s1 (racemic) [Example 47, (R)-1-[rac-trans-(1,2)-1-(2-methylbenzothiazol-5-yloxy)indan-2-yl]piperidin-3-ylamine]
15 | 1000 to 10000 nM |  | CCN(CC)[C@@H]1Cc2ccccc2[C@H]1Oc1ccc(S(N)(=O)=O)c(Cl)c1Cl (racemic) [Example 355, 2,3-dichloro-4-(rac-trans-(1,2)-2-diethylaminoindan-1-yloxy)benzenesulfonamide]
16 | < 1000 nM |  | CC(=O)Nc1cccc(O[C@H]2c3ccccc3C[C@@H]2N2CCC[C@@H](NCCC(F)(F)F)C2)c1 [Example 632, N-(3-{trans-(1S,2S)-2-[(R)-3-(3,3,3-trifluoropropylamino)piperidin-1-yl]indan-1-yloxy}-phenyl)acetamide]
17 | 1000 to 10000 nM |  | N[C@@H]1CCCN([C@H]2CCc3ccccc3[C@@H]2Oc2ccc(N3C(=O)CCC3=O)cc2)C1 (racemic) [Example 326, 1-{4-[rac-trans-(1,2)-2-((R)-3-aminopiperidin-1-yl)-1,2,3,4-tetrahydronaphthalen-1-yloxy]phenyl}pyrrolidine-2,5-dione]
18 | 1000 to 10000 nM |  | NCC1CCN([C@@H]2Cc3ccccc3[C@H]2Oc2ccc(Br)cc2-c2cc[nH]n2)C1 (mixture of isomers) [Example 600, C-(1-{rac-trans-(1,2)-1-[4-bromo-2-(1H-pyrazol-3-yl)phenoxy]indan-2-yl}pyrrolidin-3-yl)methylamine]
19 | < 1000 nM |  | N#Cc1ccc(O[C@H]2c3ccccc3CC[C@@H]2N2CCC[C@H](N)C2)c(F)c1 (racemic) [Example 533, 4-[rac-trans-(1,2)-2-((S)-3-aminopiperidin-1-yl)-1,2,3,4-tetrahydronaphthalen-1-yloxy]-3-fluorobenzonitrile]
20 | < 1000 nM |  | CC(=O)Nc1cccc(O[C@H]2c3cc(F)cc(Cl)c3C[C@@H]2N2CCC[C@@H](N)C2)c1 (racemic) [Example 677, N-{3-[rac-trans-(1,2)-2-((R)-3-aminopiperidin-1-yl)-4-chloro-6-fluoroindan-1-yloxy]phenyl}acetamide]
